According to US20230165242A1, “RODENTICIDAL BAIT AND METHOD OF CONTROLLING TARGET HARMFUL RODENTS” (priority 2020, published 2023):

What was measured:
[1] = tested on: warfarin-sensitive male OFA-Sprague-Dawley rats; test: Prothrombin level, Quick's time (bromadiolone / cholecalciferol gavage); format: in vivo, rat
Text: Warfarin-sensitive male OFA-Sprague-Dawley rats (Charles River, L′Arbresles, France) are fed by gavage for 3 consecutive days with a gavage solution containing bromadiolone (LIPHATECH, France) and cholecalciferol (Sigma-Aldrich, France) in a solvent consisting of 95% (v/v) of oil and 5% (v/v) of DMSO. During this period of gavage, the rats are fed with a conventional solid feed and water in unlimited amounts. The concentrations of bromadiolone and cholecalciferol in the gavage solution are 0.1 g/kg (100 ppm) and 7.5 g/kg (7500 ppm) respectively. Each rat receives daily a volume of gavage solution calculated to correspond to 1 mL of gavage solution per kilogram of body weight. The OFA-Sprague-Dawley rats in two control groups are fed by gavage in the same conditions with gavage solutions containing bromadiolone (alone) at a concentration of 100 ppm or cholecalciferol (alone) at a concentration of 7500 ppm, respectively. 24 hours after the last gavage, a volume of blood is taken from each rat by intracardiac puncture and placed in a specimen tube containing sodium citrate. The animals are euthanized after puncture and the plasma is prepared by centrifugation. Quick's time (or clotting time) is evaluated on the plasma supplemented with sodium citrate, then decalcified and recalcified in the presence of calcium thromboplastin. Quick's time is evaluated by means of an optical device for clotting analysis (Option 2plus, Bio Mèrieux®). The results are presented [FIG. 2]. The average Quick's time measured on the plasma from the rats fed by gavage with bromadiolone (bar “B”) is 12.4 seconds (±1.8), the average Quick's time measured on the plasma from the rats fed by gavage with cholecalciferol (bar “C”) is 12.4 seconds (±0.9) and the average Quick's time measured on the plasma from the rats fed by gavage with the composition comprising bromadiolone and cholecalciferol (bar “D”) is 14.1 seconds (±2.7). The differences in values of Quick's time measured between the three groups of rats are not significant. The rats in the group of rats that received the combination of bromadiolone and cholecalciferol coagulate in the same way as the rats in the group of rats that received the gavage solution containing bromadiolone on the one hand and the rats in the group of rats that received the gavage solution containing cholecalciferol on the other hand. Quick's time for rats treated with a control solution formed from oil (95%, v/v) and DMSO (5%, v/v) is (bar “A”) 12.8 seconds (±2.3). Neither the gavage solution containing bromadiolone in combination with cholecalciferol, nor the gavage solution containing bromadiolone alone, nor the gavage solution containing cholecalciferol induces an increase of Quick's time relative to the control. […]

[2] = tested on: Warfarin-sensitive Sprague-Dawley rats; test: Relative toxicity of cholecalciferol, single gavage dose, “SD” rats; format: in vivo, rat; details: single gavage dose 30 mg/kg; 20 days
Text: (§1) Warfarin-sensitive Sprague-Dawley rats (20 male rats and 20 female rats), male and female rats that are homozygotic carriers of the L120Q mutation, male and female Sprague-Dawley rats that are homozygotic carriers of the Y139F mutation and male and female brown rats (Rattus norvegicus) that are homozygotic carriers of the Y1 39C mutation are acclimatized for 5 days in the presence of a conventional solid feed and water in unlimited amounts. The rats are fed by gavage with a single dose of a gavage solution containing cholecalciferol (Sigma-Aldrich, France) in a solvent consisting of 95% (v/v) of oil and 5% (v/v) of DMSO. The rats are fed with a conventional solid feed and water in unlimited amounts. The amount of cholecalciferol administered is 30 mg of cholecalciferol per kilogram of body weight of the rat fed by gavage. The percentage of rats surviving gavage for 20 days, counting from the first day of gavage, is noted daily. The results given in Table 4 hereunder describe the mortality observed (“SD”, Sprague-Dawley). The amount of cholecalciferol ingested by the rodents during gavage corresponds to consumption by these rodents of a bait assayed at 300 ppm of cholecalciferol.

[3] = tested on: Sprague-Dawley rats that are homozygotic carriers of the Y139F mutation; test: Relative toxicity of cholecalciferol, single gavage dose, Y139F rats; format: in vivo, rat; details: single gavage dose 30 mg/kg; 20 days
Text: as §1

[4] = tested on: brown rats (Rattus norvegicus) that are homozygotic carriers of the Y139C mutation; test: Relative toxicity of cholecalciferol, single gavage dose, Y139C rats; format: in vivo; details: single gavage dose 30 mg/kg; 20 days
Text: as §1

[5] = tested on: warfarin-sensitive male OFA-Sprague-Dawley rats; test: Synergy of difethialone and cholecalciferol on warfarin-sensitive rats, gavage, survival; format: in vivo, rat; details: gavage once a day for 3 days; cholecalciferol alone 7.5 mg/kg; after 2 days of observation
Text: A group of warfarin-sensitive male OFA-Sprague-Dawley rats (Charles River, L′Arbresles, France), aged 10 weeks and with a body weight between 160 and 180 g, are fed by gavage once a day for 3 consecutive days with a gavage solution containing difethialone (LIPHATECH, France) and cholecalciferol (Sigma-Aldrich, France) in a solvent consisting of 95% (v/v) of oil and 5% (v/v) of DMSO. During this period of gavage, the rats are fed with a conventional solid feed and water in unlimited amounts. The amounts of difethialone and cholecalciferol administered are 125 μg per kilogram of body weight of the rat fed by gavage and 7.5 mg per kilogram of body weight of the rat fed by gavage, respectively. The rats in two control groups, each consisting of OFA-Sprague-Dawley rats, are fed by gavage in the same conditions with gavage solutions containing difethialone alone (125 μg/kg) or cholecalciferol alone (7.5 mg/kg), respectively. The percentage of rats surviving gavage is recorded daily, for 20 days counting from the first day of gavage. The results presented [FIG. 3] show the variation of the percentage of rodents surviving (in %) as a function of time (t, in days) following the first day of gavage. The rats fed by gavage with the difethialone solution (♦) have 100% survival after 20 days of observation. […]

[6] = tested on: warfarin-sensitive male OFA-Sprague-Dawley rats; test: Dose/rodenticidal response effect of cholecalciferol; format: in vivo, rat; details: gavage, 21 days
Experimental: A gavage solution containing cholecalciferol (Sigma-Aldrich, France) in a solvent consisting of 95% (v/v) of oil and 5% (v/v) of DMSO is administered once a day for 3 consecutive days to warfarin-sensitive male OFA-Sprague-Dawley rats (Charles River, L′Arbresles, France), aged 10 weeks and with a body weight between 160 and 180 g. During this period of gavage, the rats are fed with a conventional solid feed and water in unlimited amounts. The doses of cholecalciferol administered to the OFA-Sprague-Dawley rats, given in Table 7 hereunder, are expressed in milligrams of cholecalciferol administered per kilogram of body weight of the gavage-fed rodent.
The percentage of rats surviving gavage is noted daily for 21 days counting from the first day of gavage.

Compound: C=C1CC[C@H](O)C/C1=C/C=C1\CCC[C@]2(C)[C@@H]([C@H](C)CCCC(C)C)CC[C@@H]12 [cholecalciferol]
- anticoagulant effect (increase of Quick's time relative to the control) ([1]; 3 daily gavages, bromadiolone 100 ppm and/or cholecalciferol 7500 ppm solution, 1 mL/kg): not anticoagulants
- average Quick's time (clotting time) ([1]; plasma 24 hours after last of 3 daily gavages, 1 mL/kg of solution with bromadiolone 100 ppm and/or cholecalciferol 7500 ppm): 12.4 s
- Female mortality, % [2]: 30%
- Male mortality, % [2]: 10%
- Female mortality, % [3]: 0%
- Male mortality, % [3]: 30%
- Female mortality, % [4]: 0%
- Male mortality, % [4]: 30%
- percentage of rats surviving [5]: 60%
- Mortality, % ([6]; dose 5 mg/kg once a day for 3 days): 20%
- Mortality, % ([6]; dose 7.5 mg/kg once a day for 3 days): 30%
